Source: the supplement of paper PMC10307832

Key:
Assay in all cases: relative viability (nuclei count vs DMSO), 5 days (fraction); higher = more cells survive
BI-D1870 + Olaparib = compound: CC(C)CCN1c2nc(Nc3cc(F)c(O)c(F)c3)ncc2N(C)C(=O)C1C [BI-D1870] + O=C(c1cc(Cc2n[nH]c(=O)c3ccccc23)ccc1F)N1CCN(C(=O)C2CC2)CC1 [Olaparib] (partner 8 µM)
Summary of the method: (§1)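 Lung cancer cell lines were pin-tool dosed in 1536-well plates on the day after seeding, with either a lone drug or a fixed anchor-drug dose plus five library-drug doses (not always all listed) in √10 steps. Nuclei were counted on 4× images after 5 days. Relative viability is the ratio of treated-well to vehicle-well nuclei counts, with each value a median of duplicate plates.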

BI-D1870 + Bortezomib = compound: CC(C)CCN1c2nc(Nc3cc(F)c(O)c(F)c3)ncc2N(C)C(=O)C1C [BI-D1870] + CC(C)C[C@H](NC(=O)[C@H](Cc1ccccc1)NC(=O)c1cnccn1)B(O)O [Bortezomib] (partner 0.002 µM)
Summary of the method: as §1

BI-D1870 + Pictilisib = compound: CC(C)CCN1c2nc(Nc3cc(F)c(O)c(F)c3)ncc2N(C)C(=O)C1C [BI-D1870] + CS(=O)(=O)N1CCN(Cc2cc3nc(-c4cccc5[nH]ncc45)nc(N4CCOCC4)c3s2)CC1 [Pictilisib] (partner 1 µM)
Summary of the method: as §1

Zebularine + Dasatinib = compound: O=c1ncccn1[C@@H]1O[C@H](CO)[C@@H](O)[C@H]1O [Zebularine] + Cc1nc(Nc2ncc(C(=O)Nc3c(C)cccc3Cl)s2)cc(N2CCN(CCO)CC2)n1 [Dasatinib] (partner 0.075 µM)
Summary of the method: as §1

Cell Line	relative viability (BI-D1870 + Olaparib; first compound 0.04 µM)	relative viability (BI-D1870 + Olaparib; first compound 0.1265 µM)	relative viability (BI-D1870 + Olaparib; first compound 0.4 µM)	relative viability (BI-D1870 + Olaparib; first compound 1.265 µM)	relative viability (BI-D1870 + Olaparib; first compound 4 µM)	relative viability (BI-D1870 + Bortezomib; first compound 0.04 µM)	relative viability (BI-D1870 + Bortezomib; first compound 0.1265 µM)	relative viability (BI-D1870 + Bortezomib; first compound 0.4 µM)	relative viability (BI-D1870 + Bortezomib; first compound 1.265 µM)	relative viability (BI-D1870 + Bortezomib; first compound 4 µM)	relative viability (BI-D1870 + Pictilisib; first compound 0.04 µM)	relative viability (BI-D1870 + Pictilisib; first compound 0.1265 µM)	relative viability (BI-D1870 + Pictilisib; first compound 0.4 µM)	relative viability (BI-D1870 + Pictilisib; first compound 1.265 µM)	relative viability (BI-D1870 + Pictilisib; first compound 4 µM)	relative viability (Zebularine + Dasatinib; first compound 1 µM)	relative viability (Zebularine + Dasatinib; first compound 3.162 µM)	relative viability (Zebularine + Dasatinib; first compound 10 µM)	relative viability (Zebularine + Dasatinib; first compound 31.62 µM)	relative viability (Zebularine + Dasatinib; first compound 100 µM)
ABC-1	0.751	0.782	1	0.613	0.666	0.306	0.353	0.232	0.298	0.244	0.751	0.673	0.633	0.744	0.566	0.637	0.352	0.454	0.435	0.351
BEN	1.23	1	1.02	1.11	0.806	0.897	0.793	0.971	0.979	0.663	0.56	0.608	0.566	0.608	0.507	0.32	0.303	0.253	0.223	0.146
CAL-12T	0.692	0.701	0.672	0.482	0.372	1.15	0.907	0.932	0.895	0.635	0.554	0.363	0.382	0.657	0.336	0.462	0.623	0.238	0.451	0.414
COR-L23	0.315	0.325	0.327	0.35	0.245	1.28	0.844	0.979	0.926	1.03	1.08	0.695	0.743	0.732	0.643	0.616	0.442	0.373	0.239	0.211
COR-L 105	0.79	0.533	0.713	0.687	0.678	0.835	0.831	0.88	0.774	0.713	0.4	0.405	0.407	0.474	0.386	0.33	0.294	0.33	0.367	0.369
ChaGo-K-1	0.451	0.379	0.414	0.412	0.303	1.03	1.05	0.608	0.942	0.933	0.757	0.807	0.502	0.758	0.407	0.619	0.557	0.312	0.269	0.183
EKVX	0.916	0.789	0.805	0.969	0.721	1.14	1.1	0.938	1.15	1.05	0.488	0.388	0.412	0.453	0.403	0.577	0.498		0.575	0.573
EMC-BAC-2	0.513	0.451	0.453	0.512	0.455	1.18	0.964	1.02	1.09	1.05	0.626	0.48	0.514	0.637	0.535	0.349	0.367	0.268	0.318	0.311
EPLC-272H	0.692	0.804	0.692	0.381	0.204	0.887	0.99	1.01	1.1	0.772	0.364	0.295	0.275	0.312	0.243	0.405	0.356	0.255	0.34	0.28
H3255	0.591	0.526	0.59	0.602	0.526	0.67	0.779	0.769	0.969	0.748	0.505	0.458	0.451	0.584	0.497	0.402	0.365	0.324	0.409	0.368
HARA	0.795	0.826	0.86	0.868	0.972	1.03	1.03	1.22	1.18	0.943	0.597	0.314	0.458	0.518	0.366	0.219			0.35	0.274
HCC-15	0.819	0.761	0.713	0.694	0.404	1.03	1.01	0.922	1.04	0.863	0.792	0.661	0.674	0.79	0.509	0.759	0.577	0.494	0.486	0.27
HCC-78	0.662	0.932	0.682	0.971	0.68	0.545	0.402	0.492	0.56	0.42	0.213	0.185	0.249	0.21	0.236	0.385	0.428	0.22	0.37	0.278
HCC-366	0.503	0.348	0.295	0.42	0.229	1.1	0.911	1.05	1.1	0.317	0.157	0.159	0.0753	0.136	0.174	0.617	0.667	0.526	0.721	0.218
HCC-827	0.71	0.649	0.594	0.634	0.626	1.14	1.1	0.985	1.03	1.12	0.96	1.05	1.08	1.14	0.91	0.3	0.292	0.249	0.322	0.238
HOP-62	0.545	0.364	0.388	0.525	0.383	0.74	0.812	0.809	0.803	0.456	0.606	0.745	0.726	0.554	0.669	0.729	0.711	0.421	0.462	0.253
